Reference: patent US20250041367A1, “BACTERIOPHAGES AND USE THEREOF FOR THE TREATMENT OR PREVENTION OF INFECTION CAUSED BY E. COLI” (Purdue Research Foundation, priority 2023, published 2025)
Entries after “also recorded” stand apart in the source; their conditions may differ.

Tests used:
[1] = Phage stability in simulated gastric fluid (SGF); type: physicochemical; settings: for phage concentration, unencapsulated, SGF-exposed: SGF pH 2.5 with pepsin; for phage concentration, unencapsulated, SGF-exposed / phage concentration, unencapsulated, PBS-treated: 41° C.; for phage concentration lower in SGF-exposed than in PBS-exposed samples: 90 minutes of exposure; for phage concentration, unencapsulated, PBS-treated: 1×PBS control
Procedure: The stability of bacteriophages in gastric environments was tested by exposing both encapsulated and unencapsulated bacteriophages to simulated gastric fluid (SGF; 0.32% pepsin (w/v) in 0.2% NaCl; pH 2.5) and to 1×PBS (Moghtader et al., 2016). In this experiment, unencapsulated phages (0.5 mL, in concentrations ranging from 1×10^9 to 4×10^8 PFU/mL depending on the phage type) were added to 4.5 mL of either SGF or PBS (5 replicates per treatment) and incubated at 41° C. This temperature was chosen as it is a typical internal temperature for chickens. Encapsulated phages (0.5 g, in concentrations ranging from 2×10^9 to 2×10^8 PFU/mL depending on the phage type) were also added to 4.5 mL of either SGF or PBS (5 replicates per treatment) and incubated at 41° C. Aliquots (100 μL) were collected from each unencapsulated phage sample after 5, 15, 30, 60, and 90 minutes of exposure to SGF or PBS. These aliquots were serially diluted, and phage concentrations were measured by standard plaque assay. At 15, 30, 60, and 90 minutes post-SGF or PBS exposure, microencapsulated phages were washed with SM buffer to remove residual SGF or PBS and then dissolved in a dissolving solution. Aliquots of the dissolved microcapsules were serially diluted and phage concentrations were measured by standard plaque assay. This experiment was conducted in triplicate for each phage type. Samples containing SGF and unencapsulated bacteriophages were serially diluted without washing and phage concentrations were measured by standard plaque assay as described above. Concentrations of viable phages after exposure to SGF or PBS for a given length of time were then compared.

host APEC E. coli O6:H31 = assay: Lytic capacity of individual phages in liquid media (OD600); type: cell-based, Escherichia coli; settings: for concentration of APEC (OD600) versus untreated APEC cultures: 2, 3, and 4 hours post-treatment; for OD600 reading of phage-treated APEC culture: after 1 hour of incubation, MOI 10, 37° C., untreated AHP host OD600=0.497
Procedure: (§1) Individual APEC strains (100 μL) were inoculated into 15 mL LB media in separate tubes (two tubes per strain) and incubated at 37° C. in a shaking incubator. Once the bacterial cultures reached an OD600 0.18-0.22, the individual bacteriophage types (MOI=10) were added to one tube from the pair of tubes inoculated with their respective host APEC strain. The other tubes of bacterial culture were left untreated and served as negative controls. Bacterial growth was assessed by measuring absorbance (OD600) in all tubes every hour for 4 hours. The experiment was repeated three times.
(§2) The six APEC strains were individually inoculated into LB broth and incubated at 37° C. until they reached log-phase growth. Phages were added to the log-phase culture of their APEC host at an MOI of 10, and subsequent bacterial concentrations were determined by measuring the absorbance (OD600) of the culture at 1, 2, 3, and 4 hours post-phage application. One flask containing only bacterial culture was included as a negative control. Additional flasks containing both bacterial cultures and antibiotics (specifically, gentamycin sulfate, kanamycin sulfate, nalidixic acid, or chloramphenicol) at their respective minimum inhibitory concentrations (National Antibiotic Resistance Monitoring System (NARMS) 2019, antibiotics tested by NARMS) were included as positive controls. These lytic capacity experiments were conducted in triplicate for each of the phage types and their respective host APEC strains.

[2] = Encapsulation efficiency in sodium alginate microcapsules (plaque assay); type: physicochemical; set-up: Pre-encapsulation phage concentration / Concentration of phages in microcapsules: unit not given here; settings: for Pre-encapsulation phage concentration: before encapsulation; for Pre-encapsulation phage concentration / Concentration of phages in microcapsules: plaque assay; for Encapsulation efficiency: encapsulated / pre-encapsulation phage concentration; for Concentration of phages in microcapsules: sodium alginate microcapsules dissolved
Procedure: Bacteriophages were microencapsulated within sodium alginate microcapsules as well-known in the art with some modifications (Krasaekoopt et al., 2004, International Dairy Journal, 14 (8), 737-743). In short, sodium alginate (4 g) was mixed with 400 mL of a bacteriophage filtrate to make a 1% (w/v) suspension. This suspension was allowed to gel at room temperature for 4 hours and was then processed through a Buchi Encapsulator-B395 set at 200 Hz (frequency) and 1000V (electrode) with an aperture of 0.3 mm. The resulting microcapsules were collected in a beaker containing a hardening solution (100 mM CaCl2)) with continuous stirring to avoid clumping of microcapsules. Microcapsules were allowed to sit in the 100 mM CaCl2) solution to harden for 30 minutes and were then washed three times with SM buffer. Washed microcapsules were stored in SM buffer in 50 ml conical tubes at 4° C. until further use. Each of the six phage types was individually microencapsulated in this manner.
To assess the efficiency of microencapsulation, the concentrations of microencapsulated phages were compared to pre-encapsulation concentrations as well-known in the art (Yongsheng et al., 2008, Applied and Environmental Microbiology, 74 (15), 4799). To determine bacteriophage concentrations in microcapsules, microcapsules (0.5 g) were dried by contact with filter paper and then dissolved in 4.5 mL of dissolving solution (50 mM sodium citrate, 0.2M sodium bicarbonate, and 50 mM Tris-HCl; pH 7.5). Bacteriophage concentrations were then quantified by standard plaque assay as described previously. Encapsulation efficiency (EE %) was calculated as:
EE %=encapsulated phage concentration/pre-encapsulation phage concentration

[3] = Phage stability in simulated intestinal fluid (SIF); type: physicochemical; settings: unencapsulated phage, SIF pH 7, 41° C., 1, 2, and 3 hours
Procedure: To assess phage stability in intestinal fluids, 0.5 mL of unencapsulated phages were added to 4.5 mL of simulated intestinal fluid (SIF; 0.1% (w/v) bile salt and 0.4% (w/v) pancreatin in 50 mM KH2PO4; pH 7) and incubated at 41° C. As a negative control, 0.5 mL of unencapsulated phages were added to 4.5 mL of 1×PBS and incubated at 41° C. Aliquots (100 μL) were collected from each sample after 1, 2, and 3 hours of exposure to SIF. These aliquots were serially diluted and phage concentrations were measured by standard plaque assay as described above. The experiment was conducted in triplicate for each phage type. Concentrations of viable phages after exposure to SIF or PBS at a given time point were then compared.

host APEC E. coli O2:H4 = assay: Lytic capacity of individual phages in liquid media (OD600); type: cell-based, Escherichia coli; settings: for OD600 reading of phage-treated APEC culture: after 1 hour of incubation, MOI 10, 37° C., untreated host OD600=0.454
Procedure: as §1, §2

[4] = 1, 2, 3, and 4 hours post-treatment, MOI 10, P<0.05

Substance | phage concentration, encapsulated, PBS-exposed ([1]; encapsulated phage, 60 minutes) | phage concentration, encapsulated, PBS-exposed ([1]; encapsulated phage, 90 minutes) | phage concentration, encapsulated, SGF-exposed ([1]; encapsulated phage, 60 minutes) | phage concentration, encapsulated, SGF-exposed ([1]; encapsulated phage, 90 minutes) | phage concentration, unencapsulated, SGF-exposed ([1]; unencapsulated phage) | concentration of APEC (OD600) versus untreated APEC cultures (host APEC E. coli O6:H31; MOI 10, P<0.05) | OD600 reading of phage-treated APEC culture (host APEC E. coli O6:H31) | Pre-encapsulation phage concentration [2] | Encapsulation efficiency [2] | Concentration of phages in microcapsules [2] | phage concentration lower in SGF-exposed than in PBS-exposed samples ([1]; unencapsulated phage) | phage concentration SGF-exposed versus PBS-exposed ([1]; unencapsulated phage, after 5 and 15 minutes of exposure, P>0.05) | phage concentration SGF-exposed versus PBS-exposed ([1]; unencapsulated phage, after 30, 60, and 90 minutes of exposure, P<0.05) | concentration of APEC host versus APEC cultures incubated without phages (host APEC E. coli O6:H31; [4]) | phage concentration SIF-exposed versus PBS-exposed [3] | phage concentration lower in SGF-exposed than in PBS-exposed samples ([1]; encapsulated phage) | phage concentration, unencapsulated, PBS-treated ([1]; unencapsulated phage) | OD600 reading of phage-treated APEC culture (host APEC E. coli O2:H4) | concentration of APEC host versus APEC cultures incubated without phages (host APEC E. coli O2:H4; [4])
Escherichia phage vB_Eco_AHC | 8.31 log10 PFU/mL | 8.23 log10 PFU/mL | 8.13 log10 PFU/mL | 7.15 log10 PFU/mL | could not be detected; also recorded: not detectable | Significantly lower | did not significantly differ | 8.9 ± 0.1 | 94.4% | 8.4 ± 0.2 | – | – | – | – | – | – | – | – | –
Escherichia phage vB_Eco_AHP | 9.23 log10 PFU/mL | 9.19 log10 PFU/mL | 9.21 log10 PFU/mL | 8.12 log10 PFU/mL | – | – | 0.284 | 9.6 ± 0.1 | 97.9% | 9.4 ± 0.1 | 2.35 log10 PFU/mL | No significant differences | significantly lower | significantly lower | – | – | – | – | –
Escherichia phage vB_Eco_AKA | 8.27 log10 PFU/mL | 8.22 log10 PFU/mL | 8.17 log10 PFU/mL | 7.3 log10 PFU/mL | could not be detected; also recorded: not detectable | Significantly lower | did not significantly differ | 8.6 ± 0.2 | 98.8% | 8.5 ± 0.1 | – | – | – | – | – | – | – | – | –
Escherichia phage vB_Eco_MIA | 8.27 log10 PFU/mL | 8.27 log10 PFU/mL | 8.14 log10 PFU/mL | 7.34 log10 PFU/mL | could not be detected; also recorded: not detectable | Significantly lower | did not significantly differ | 8.9 ± 0.1 | 95.5% | 8.5 ± 0.1 | – | – | – | – | – | – | – | – | –
Escherichia phage vB_Eco_MP_1 [MP1] | 9.23 log10 PFU/mL | 9.19 log10 PFU/mL | 9.09 log10 PFU/mL | 8.11 log10 PFU/mL | 8.71 log10 PFU/mL | – | – | 9.3 ± 0.2 | 98.9% | 9.2 ± 0.2 | 3.9 log10 PFU/mL | – | – | – | significantly lower | 0.97 log10 PFU/mL | 9.27 log10 PFU/mL | 0.101 | –
Escherichia phage vB_Eco_MP_2 [MP2] | 9.15 log10 PFU/mL | 9.07 log10 PFU/mL | 9.11 log10 PFU/mL | 8.41 log10 PFU/mL | 7.72 log10 PFU/mL | – | – | 9.4 ± 0.1 | 98.9% | 9.3 ± 0.2 | 4.5 log10 PFU/mL | – | – | – | – | 0.74 log10 PFU/mL | 9.05 log10 PFU/mL | 0.328 | significantly lower
